Measured values published in ChEMBL document CHEMBL5053532, “Bradykinin-Potentiating Peptide-Paclitaxel Conjugate Directed at Ectopically Expressed Angiotensin-Converting Enzyme in Triple-Negative Breast Cancer” (J Med Chem, 2021).
The source made the active and inactive calls. The calls are words filed in the database; no cut-off is given here. Where a SMILES comes first, the peptide text is derived from it. The star is where a group is joined. Paclitaxel(2'-O-succinyl) = CC(=O)O[C@H]1C(=O)[C@@]2(C)[C@H]([C@H](OC(=O)c3ccccc3)[C@]3(O)C[C@H](OC(=O)[C@H](OC(=O)CCC(=O)*)[C@@H](NC(=O)c4ccccc4)c4ccccc4)C(C)=C1C3(C)C)[C@]1(OC(C)=O)CO[C@@H]1C[C@@H]2O

What was measured:
[1] = Drug uptake in BALB/c mouse xenografted with human […] cells assessed as PTX level in liver at 17.6 micromol/kg, ip measured after 15 mins to 24 hrs; format: ADME, organism-based; conditions: in vivo, 0.25 h, dose 17.6 µmol/kg
[2] = Drug uptake in BALB/c mouse xenografted with human […] cells assessed as PTX level in tumor at 17.6 micromol/kg, ip measured after 1 hr; format: ADME, organism-based, Neoplasm; conditions: in vivo, dose 17.6 µmol/kg
MDA-MB-468 [3] = experiment: Antitumor activity in human […] cells xenografted in Balb/c mouse assessed as reduction in tumor growth at 9.6 micromol/kg, ip measured after 28 days relative to control; format: functional; set-up: scale not given: the % may be the effect or the level left; conditions: dose 9.6 µmol/kg, time 28 day
[4] = Drug uptake in BALB/c mouse xenografted with human […] cells assessed as PTX level in lung at 17.6 micromol/kg, ip measured after 15 mins to 24 hrs; format: ADME, organism-based; conditions: in vivo, 0.25 h, dose 17.6 µmol/kg
MDA-MB-231 [5] = experiment: Induction of apoptosis in ACE-positive human MDA-MB-231 cells assessed as increase in apoptotic cells at 10 nM measured after 48 hrs by Annexin V-FITC/PI staining based fluorescence microscopy; format: functional, cell-based
MDA-MB-468 [6] = experiment: Antitumor activity in human […] cells xenografted in Balb/c mouse assessed as reduction in tumor growth at 2.4 micromol/kg, ip measured after 4 days; format: functional, organism-based; conditions: dose 2.4 µmol/kg, time 4.0 day
MDA-MB-468 [7] = experiment: Antitumor activity in human […] cells xenografted in Balb/c mouse assessed as tumor weight at 9.6 micromol/kg, ip measured after 28 days (reference value: 0.43 g); format: functional; conditions: dose 9.6 µmol/kg, time 28 day
[8] = Drug uptake in human MDA-MB-468 cells assessed as increase in PTX uptake rate at 10 to 20 uM measured after 2 hrs; format: ADME, cell-based; conditions: mda-mb-468, 2 h, dose 10-20 µM
MDA-MB-231 [9] = experiment: Antiproliferative activity against ACE-positive human MDA-MB-231 cells incubated for 48 hrs by MTT assay; format: functional, cell-based; conditions: MDA-MB-231, 48 h
Mus musculus [10] = experiment: Toxicity in BALB/c mouse xenografted with human […] cells assessed as reduction in WBC count at 9.6 micromol/kg, ip measured after 28 days relative to control; format: organism-based; set-up: scale not given: the % may be the effect or the level left; conditions: 672 h, at 9.6 µmol/kg, time 28 day
[11] = molecular target: Angiotensin-converting enzyme (Homo sapiens, UniProt P12821); experiment: Binding affinity to human recombinant ACE protein assessed as dissociation constant incubated for 15 mins by […] binding analysis
Angiotensin-converting enzyme, sequence (P12821 whole entry): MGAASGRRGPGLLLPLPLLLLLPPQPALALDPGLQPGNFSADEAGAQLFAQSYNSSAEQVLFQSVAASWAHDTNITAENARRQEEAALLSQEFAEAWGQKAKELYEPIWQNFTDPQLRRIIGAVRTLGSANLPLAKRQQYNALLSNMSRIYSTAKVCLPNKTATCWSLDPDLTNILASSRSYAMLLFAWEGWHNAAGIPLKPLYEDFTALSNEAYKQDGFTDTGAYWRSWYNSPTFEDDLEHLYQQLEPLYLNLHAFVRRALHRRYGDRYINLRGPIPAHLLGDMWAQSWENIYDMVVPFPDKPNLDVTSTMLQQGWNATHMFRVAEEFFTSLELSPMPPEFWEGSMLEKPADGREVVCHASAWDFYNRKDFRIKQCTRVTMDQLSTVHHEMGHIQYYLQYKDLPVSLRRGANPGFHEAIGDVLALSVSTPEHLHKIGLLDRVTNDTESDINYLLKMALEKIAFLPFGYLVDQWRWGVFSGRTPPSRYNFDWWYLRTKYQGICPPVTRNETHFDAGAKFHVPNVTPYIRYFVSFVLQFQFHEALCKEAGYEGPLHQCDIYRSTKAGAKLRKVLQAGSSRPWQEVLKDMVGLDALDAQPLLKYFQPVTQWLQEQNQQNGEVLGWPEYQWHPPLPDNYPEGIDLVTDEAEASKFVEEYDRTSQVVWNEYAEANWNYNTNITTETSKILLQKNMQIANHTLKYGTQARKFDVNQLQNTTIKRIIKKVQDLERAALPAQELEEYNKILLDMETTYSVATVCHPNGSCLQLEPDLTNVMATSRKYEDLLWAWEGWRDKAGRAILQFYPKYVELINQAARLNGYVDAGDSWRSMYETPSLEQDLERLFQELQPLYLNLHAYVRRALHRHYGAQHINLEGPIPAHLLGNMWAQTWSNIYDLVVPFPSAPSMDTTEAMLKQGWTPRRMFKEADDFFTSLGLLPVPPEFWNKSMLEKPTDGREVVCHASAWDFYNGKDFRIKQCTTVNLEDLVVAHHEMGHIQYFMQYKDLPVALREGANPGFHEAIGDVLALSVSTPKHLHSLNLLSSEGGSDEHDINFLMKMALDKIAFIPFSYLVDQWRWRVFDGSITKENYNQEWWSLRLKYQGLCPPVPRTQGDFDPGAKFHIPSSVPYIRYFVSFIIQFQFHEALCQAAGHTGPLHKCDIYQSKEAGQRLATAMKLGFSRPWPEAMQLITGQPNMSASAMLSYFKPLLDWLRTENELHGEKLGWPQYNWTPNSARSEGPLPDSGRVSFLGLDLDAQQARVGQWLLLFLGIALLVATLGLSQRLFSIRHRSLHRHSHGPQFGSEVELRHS

[12] = Acute toxicity in BALB/c mouse assessed as survival at 100 mg/kg, ip measured for 15 days; format: organism-based; conditions: in vivo, 360 h, time 15 day
HEK-293T [13] = experiment: Potency index, ratio of PTX IC50 to test compound IC50 antiproliferative activity against ACE-negative human HEK293T cells incubated for 48 hrs by MTT assay; format: functional
HEK-293T [14] = experiment: Antiproliferative activity against human HEK293T cells expressing ACE containing plasmid incubated for 48 hrs by MTT assay; format: functional, cell-based
[15] = Acute toxicity in BALB/c mouse assessed as survival at 60 mg/kg, ip measured for 15 days; format: organism-based; conditions: in vivo, 360 h, time 15 day
[16] = Drug uptake in BALB/c mouse xenografted with human […] cells assessed as PTX level in kidney at 17.6 micromol/kg, ip measured after 15 mins to 24 hrs; format: ADME, organism-based; conditions: in vivo, 0.25 h, dose 17.6 µmol/kg
[17] = Stability of the compound in rat plasma assessed as drug residual at 10 uM measured after 48 hrs by LC/MS analysis; format: ADME, cell-free; conditions: read-out: Stability
MDA-MB-468 [18] = experiment: Induction of apoptosis in ACE-positive human MDA-MB-468 cells assessed as increase in apoptotic cells at 10 nM measured after 48 hrs by Annexin V-FITC/PI staining based fluorescence microscopy; format: functional, cell-based
HEK-293T [19] = experiment: Antiproliferative activity against ACE-negative human HEK293T cells incubated for 48 hrs by MTT assay; format: functional, cell-based
[20] = Acute toxicity in BALB/c mouse assessed as survival at 80 mg/kg, ip measured for 15 days; format: organism-based; conditions: in vivo, 360 h, time 15 day
MDA-MB-231 [21] = experiment: Potency index, ratio of PTX IC50 to test compound IC50 antiproliferative activity against ACE-positive human MDA-MB-231 cells incubated for 48 hrs by MTT assay; format: functional
MDA-MB-468 [22] = experiment: Antiproliferative activity against ACE-positive human MDA-MB-468 cells incubated for 48 hrs by MTT assay; format: functional, cell-based; conditions: MDA-MB-468, 48 h
MDA-MB-468 [23] = experiment: Antitumor activity in human […] cells xenografted in Balb/c mouse assessed as tumor weight at 2.4 micromol/kg, ip measured after 28 days (reference value: 0.43 g); format: functional; conditions: dose 2.4 µmol/kg, time 28 day
MDA-MB-468 [24] = experiment: Antitumor activity in human […] cells xenografted in Balb/c mouse assessed as reduction in tumor growth at 2.4 micromol/kg, ip measured after 28 days relative to control; format: functional; set-up: scale not given: the % may be the effect or the level left; conditions: dose 2.4 µmol/kg, time 28 day
MDA-MB-468 [25] = experiment: Potency index, ratio of PTX IC50 to test compound IC50 antiproliferative activity against ACE-positive human MDA-MB-468 cells incubated for 48 hrs by MTT assay; format: functional
[26] = Acute toxicity in BALB/c mouse assessed as rate of weight loss at 60 mg/kg, ip measured for 15 days; format: organism-based; conditions: in vivo, 360 h, time 15 day
[27] = Acute toxicity in BALB/c mouse assessed as rate of weight loss at 80 mg/kg, ip measured for 15 days; format: organism-based; conditions: in vivo, 360 h, time 15 day
[28] = Stability of the compound in rat plasma assessed as half life at 10 uM measured after 72 hrs by LC/MS analysis; format: ADME, cell-free
[29] = Acute toxicity in BALB/c mouse assessed as rate of weight loss at 100 mg/kg, ip measured for 15 days; format: organism-based; conditions: in vivo, 360 h, time 15 day
[30] = Stability of the compound in PBS buffer assessed as half life at 10 uM measured after 72 hrs by LC/MS analysis; format: physicochemical
[31] = Drug uptake in BALB/c mouse xenografted with human […] cells assessed as PTX level in tumor at 17.6 micromol/kg, ip measured after 4 hrs; format: ADME, organism-based, Neoplasm; conditions: in vivo, dose 17.6 µmol/kg
Mus musculus [32] = experiment: Toxicity in BALB/c mouse xenografted with human […] cells assessed as reduction in WBC count at 2.4 micromol/kg, ip measured after 28 days relative to control; format: organism-based; set-up: scale not given: the % may be the effect or the level left; conditions: 672 h, at 2.4 µmol/kg, time 28 day
Mus musculus [33] = experiment: Toxicity in BALB/c mouse xenografted with human […] cells assessed as decrease in body weight at 2.4 micromol/kg, ip measured after 28 days relative to control; format: organism-based; set-up: scale not given: the % may be the effect or the level left; conditions: 672 h, at 2.4 µmol/kg, time 28 day
Mus musculus [34] = experiment: Toxicity in BALB/c mouse xenografted with human […] cells assessed as decrease in body weight at 9.6 micromol/kg, ip measured after 28 days relative to control; format: organism-based; set-up: scale not given: the % may be the effect or the level left; conditions: 672 h, at 9.6 µmol/kg, time 28 day
[35] = Acute toxicity in BALB/c mouse assessed as rate of weight loss at 20 mg/kg, ip measured for 15 days; format: organism-based; conditions: in vivo, 360 h, time 15 day
[36] = Drug uptake in BALB/c mouse xenografted with human […] cells measured in tumor at 17.6 micromol/kg, ip measured after 1 hr; format: ADME, organism-based, Neoplasm; conditions: dose 17.6 µmol/kg, read-out: Drug uptake
[37] = Acute toxicity in BALB/c mouse assessed as rate of weight loss at 15 mg/kg, ip measured for 15 days; format: organism-based; conditions: in vivo, 360 h, time 15 day
MDA-MB-231 [38] = experiment: Induction of apoptosis in ACE-positive human MDA-MB-231 cells assessed as increase in early apoptotic cells by measuring fragmented nuclei at 10 nM after 48 hrs by DAPI staining based fluorescence microscopy; format: functional, cell-based
[39] = Stability of the compound in PBS buffer assessed as drug residual at 10 uM measured after 72 hrs by LC/MS analysis; format: physicochemical; conditions: read-out: Stability
[40] = Drug uptake in BALB/c mouse xenografted with human […] cells measured in tumor at 17.6 micromol/kg, ip measured after 4 hrs; format: ADME, organism-based, Neoplasm; conditions: dose 17.6 µmol/kg, read-out: Drug uptake
[41] = Acute toxicity in BALB/c mouse assessed as survival at 15 mg/kg, ip measured for 15 days; format: organism-based; conditions: in vivo, 360 h, time 15 day
[42] = Acute toxicity in BALB/c mouse assessed as survival at 20 mg/kg, ip measured for 15 days; format: organism-based; conditions: in vivo, 360 h, time 15 day
Mus musculus [43] = experiment: Toxicity in BALB/c mouse xenografted with human […] cells assessed as body weight loss at 2.4 micromol/kg, ip measured upto 24 days; format: organism-based; conditions: 576 h, dose 2.4 µmol/kg, time < 24 day
[44] = Stability of the compound in rat plasma assessed as drug residual at 10 uM measured after 72 hrs by LC/MS analysis; format: ADME, cell-free; conditions: read-out: Stability

SMILES: CC[C@H](C)[C@H](NC(=O)[C@H](CCC(N)=O)NC(=O)[C@@H]1CCCN1C(=O)[C@H](CCCNC(=N)N)NC(=O)[C@@H]1CCCN1C(=O)[C@H](Cc1c[nH]c2ccccc12)NC(=O)[C@H](CCC(=O)O)NC(=O)CCC(=O)O[C@@H](C(=O)O[C@H]1C[C@@]2(O)[C@@H](OC(=O)c3ccccc3)[C@@H]3[C@]4(OC(C)=O)CO[C@@H]4C[C@H](O)[C@@]3(C)C(=O)[C@H](OC(C)=O)C(=C1C)C2(C)C)[C@@H](NC(=O)c1ccccc1)c1ccccc1)C(=O)N1CCC[C@H]1C(=O)N1CCC[C@H]1C(N)=O ({Paclitaxel(2'-O-succinyl)}-EWPRPQIPP-NH2)
- Drug uptake [1]: Active
- Drug uptake [2]: 18067 ng/g
- Activity (MDA-MB-468 [3]): 62%
- Drug uptake [4]: Active
- Activity (MDA-MB-231 [5]): Active
- Activity (MDA-MB-468 [6]): inactive
- Activity (MDA-MB-468 [7]): 0.16 g
- Drug uptake [8]: Active
- IC50 (MDA-MB-231 [9]): 9.5 nM
- Activity (Mus musculus [10]): 22%
- Kd ([11]; read-out: Kd): 380 nM
- Activity [12]: Non-Toxic
- Ratio IC50 (HEK-293T [13]): 91.9
- Activity (HEK-293T [14]): Active
- Activity [15]: Non-Toxic
- Drug uptake [16]: Active
- remaining at 48 h, 10 µM [17]: 0.169%
- Activity (MDA-MB-468 [18]): Active
- IC50 (HEK-293T [19]): 616 nM
- Activity [20]: Non-Toxic
- Ratio IC50 (MDA-MB-231 [21]): 3.1
- IC50 (MDA-MB-468 [22]): 12.3 nM
- Activity (MDA-MB-468 [23]): 0.2 g
- Activity (MDA-MB-468 [24]): 54%
- Ratio IC50 (MDA-MB-468 [25]): 4.1
- Activity [26]: 1.9%
- Activity [27]: 4.5%
- half-life at 10 µM [28]: 349 min
- Activity [29]: 7.2%
- half-life at 10 µM [30]: 2.41 days
- Drug uptake [31]: 10458 ng/g
- Activity (Mus musculus [32]): 17%
- Activity (Mus musculus [33]): 2.8%
- Activity (Mus musculus [34]): 6.4%

SMILES: CC(=O)O[C@H]1C(=O)[C@@]2(C)[C@H]([C@H](OC(=O)c3ccccc3)[C@]3(O)C[C@H](OC(=O)[C@H](O)[C@@H](NC(=O)c4ccccc4)c4ccccc4)C(C)=C1C3(C)C)[C@]1(OC(C)=O)CO[C@@H]1C[C@@H]2O [PACLITAXEL]
- Activity (MDA-MB-468 [3]): 30%
- Activity [35]: 8.7%
- concentration at 1 h [36]: 6470 ng/g
- Activity (MDA-MB-231 [5]): Active
- Activity [37]: 4%
- Activity (MDA-MB-468 [6]): inactive
- Activity (MDA-MB-231 [38]): Active
- IC50 (MDA-MB-231 [9]): 3.1 nM
- remaining at 72 h, 10 µM [39]: 70.3%
- Kd [11]: Not Active
- concentration at 4 h [40]: 2250 ng/g
- Activity [41]: Non-Toxic
- Activity (MDA-MB-468 [18]): Active
- IC50 (HEK-293T [19]): 6.7 nM
- IC50 (MDA-MB-468 [22]): 3 nM
- Activity (MDA-MB-468 [23]): 0.26 g
- Activity (MDA-MB-468 [24]): 15%
- Activity [42]: Non-Toxic
- Activity (Mus musculus [43]): Non-Toxic
- remaining at 72 h, 10 µM [44]: 47.6%
- Activity (Mus musculus [32]): 6.2%
